Patent US20150232509A1, “SPIRO RING COMPOUNDS AS HEPATITIS C VIRUS (HCV) INHIBITORS” (SUNSHINE LAKE PHARMA CO., LTD., priority 2012, published 2015)

Tests used:
[1] = test system: HCV GT1b replicon cells; assay: HCV Replicon assay, GT1b replicon cells (Luciferase / NEO qPCR); assay type: cell-based; details: Hepatitis C virus, 72 hours incubation, read-out: EC50 against HCV 1b genotype
Method: (§1) An HCV Replicon assay was utilized in the present invention, and was prepared, developed and validated as described in Science, 1999, 285 (5424), 110-3 and J. Virol., 2003, 77 (5), 3007-19.
(§2) HCV GT1a, GT1b and GT2a replicon cells were used to test the currently described compound series as well as wild-type cells HCV 1b and resistant cells Y93H, L31F, P32L and 1302V. […]
(§3) The GT1a cells and GT1b cells were seeded into 96-well plates (8,000 cells in 125 μL/well) respectively; each compound was diluted to desired concentration using 5-fold serial dilutions protocol, 10 doses in duplicate, and added to wells with POD™ 810 Plate Assembler. The final concentration of DMSO was 0.5%; the plates were incubated in a CO2 incubator for 72 hours; after that, 40 μL of Luciferase assay substrate (Promega Bright-Glo) was added to each well, and detected by a chemiluminescence detection system (Topcount Microplate Scintillation and Luminescence Counter) 5 minutes later; data analysis.
(§4) The GT1a cells and GT1b cells were seeded into 96-well plates (8,000 cells in 125 μL/well) respectively; each compound was diluted to desired concentration using 5-fold serial dilutions protocol, 10 doses in duplicate, and added to wells with POD™ 810 Plate Assembler., the final concentration of DMSO was 0.5%; the cells were incubated in a CO2 incubator for 72 hours; quantitative PCR. • Sample preparation: the supernatant was removed, 100 μL of FCW buffer solution was added to each well, washed carefully and discarded the solution; 50 μL of lysate FCP was added to each well, the cells was lysed as PCR template and PCR template was diluted with DEPC water as sample template. • Quantitative PCR: preparation of reaction mixture according to PCR system; the reaction mixture was dispensed into a 384-well PCR reaction plate (specially for quantitative); and a standard template which was diluted in proportion was distributed into the plate; and the sample template was distributed into the plate; then the 384-well plate was sealed with closure plate membrane; the […] PCR machine was operated by procedures; data analysis. 3. Data Processing: the EC50 Values of Compounds were Analyzed by GraphPad Prism Software.

[2] = test system: HCV GT1a replicon cells; assay: HCV Replicon assay, GT1a replicon cells (Luciferase / NEO qPCR); assay type: cell-based; details: Hepatitis C virus, 72 hours incubation, read-out: EC50 against HCV 1a genotype
Method: as §1, §2, §3, §4

Structure (SMILES) | EC50 [1] [pM] | EC50 [2] [pM]
COC(=O)N[C@H](C(=O)N1CCC[C@H]1c1ncc(-c2ccc(-c3ccc(-c4cnc([C@@H]5CCCN5C(=O)[C@@H](NC(=O)OC)C(C)C)[nH]4)c4c3C3(CCCO3)CCC4)cc2)[nH]1)C(C)C (stereo partly drawn) [Example 51] | 86 | 4570
COC(=O)N[C@H](C(=O)N1CCC[C@H]1c1nc(-c2ccc(-c3ccc(-c4ccc5nc([C@@H]6CCCN6C(=O)[C@@H](NC(=O)OC)C(C)C)[nH]c5c4)c4c3CCC43CCCC3)c3c2CCC3)c[nH]1)C(C)C [Example 36] | 89 | 1080
COC(=O)N[C@H](C(=O)N1CCC[C@H]1c1ncc(-c2ccc(-c3ccc(-c4ccc5nc([C@@H]6CCCN6C(=O)[C@@H](NC(=O)OC)C(C)C)[nH]c5c4)cc3)c3c2CCC32CCCC2)[nH]1)C(C)C [Example 29] | 218 | 8680
COC(=O)N[C@H](C(=O)N1CCC[C@H]1c1ncc(C#Cc2ccc(C#Cc3cnc([C@@H]4CCCN4C(=O)[C@@H](NC(=O)OC)C(C)C)[nH]3)c3c2CCC32CCCC2)[nH]1)C(C)C [Example 7] | 106 | 955
CC(C)[C@H](NC(=O)N1CCOCC1)C(=O)N1CCC[C@H]1c1ncc(-c2ccc(N3CCC(c4cnc([C@@H]5CCCN5C(=O)[C@@H](NC(=O)N5CCOCC5)C(C)C)[nH]4)CC3)c3c2CCC32CCCC2)[nH]1 [Example 8] | 1330 | 5440
CC(C)[C@H](NC(=O)OC(C)(C)C)C(=O)N1CCC[C@H]1c1ncc(-c2ccc(C3CCC(c4cnc([C@@H]5CCCN5C(=O)[C@@H](NC(=O)OC(C)(C)C)C(C)C)[nH]4)CC3)c3c2CCC32CCCC2)[nH]1 (stereo partly drawn) [Example 10] | 3460 | 9860
COC(=O)N[C@H](C(=O)N1CCC[C@H]1C(=O)Nc1cccc(-c2ccc(-c3ccc(-c4cnc([C@@H]5CCCN5C(=O)[C@@H](NC(=O)OC)C(C)C)[nH]4)cc3)c3c2CCC32CCCC2)c1)C(C)C [Example 34] | 17 | 837
COC(=O)N[C@H](C(=O)N1CCCC[C@H]1c1ncc(-c2ccc(-c3ccc(-c4cnc([C@@H]5CCCCN5C(=O)[C@@H](NC(=O)OC)C(C)C)[nH]4)c4c3C3(CCCC3)CC4)cc2)[nH]1)C(C)C [Example 26] | 88 | 13700
COC(=O)NC(C(=O)N1CCCC1c1nc2cc(-c3ccc(-c4ccc5[nH]c(C6CCCN6C(=O)C(NC(=O)OC)C(C)C)nc5c4)c4c3CCC43CCCC3)ccc2[nH]1)C(C)C (stereo not drawn) [Example 53] | 74 | 263
COC(=O)N[C@H](C(=O)N1CCC[C@H]1c1ncc(-c2ccc(-c3ccc(-c4ccc5[nH]c([C@@H]6CCCN6C(=O)[C@@H](NC(=O)OC)C(C)C)nc5c4)c4c3C3(CCCC3)CC4)cc2)[nH]1)C(C)C [Example 3] | 32 | 97
CCC(C)[C@H](NC(=O)OC)C(=O)N1CCC[C@H]1c1nc2ccc(-c3ccc(-c4ccc(-c5cnc([C@@H]6CCCN6C(=O)[C@@H](NC(=O)OC)C(C)C)[nH]5)cc4)c4c3CCC43CCCC3)cc2[nH]1 (stereo partly drawn) [Example 9] | 32 | 97
COC(=O)N[C@H](C(=O)N1CC2(CC2)C[C@H]1c1ncc(-c2ccc(-c3ccc(-c4ccc(-c5cnc([C@@H]6CC7(CC7)CN6C(=O)[C@@H](NC(=O)OC)C(C)C)[nH]5)cc4)c4c3CCC43CCCC3)cc2)[nH]1)C(C)C [Example 22] | 876 | 3650
COC(=O)N[C@H](C(=O)N1CCC[C@H]1c1ncc(-c2ccc(-c3ccc(-c4ccc5nc([C@@H]6CCCN6C(=O)[C@@H](NC(=O)OC)C(C)C)[nH]c5c4)c4c3CCCC43CCCC3)nc2)[nH]1)C(C)C [Example 45] | 34 | 107
COC(=O)N[C@H](C(=O)N1C2CC2C[C@H]1c1ncc(-c2ccc(-c3ccc(-c4ccc(-c5cnc([C@@H]6CC7CC7N6C(=O)[C@@H](NC(=O)OC)C(C)C)[nH]5)cc4)c4c3CCC43CCCC3)cc2)[nH]1)C(C)C (stereo partly drawn) [Example 23] | 12 | 334
COC(=O)N[C@H](C(=O)N1CCC[C@H]1C(=O)Nc1ccc(-c2ccc(-c3ccc(NC(=O)[C@@H]4CCCN4C(=O)[C@@H](NC(=O)OC)C(C)C)cc3)c3c2CCC32CCCC2)cc1)C(C)C [Example 20] | 1030 | 5900
COC(=O)N[C@H](C(=O)N1CCC[C@H]1c1ncc(-c2ccc3cc(-c4ccc(-c5cnc([C@@H]6CCCN6C(=O)[C@@H](NC(=O)OC)C(C)C)[nH]5)c5c4C4(CCCC4)CC5)ccc3c2)[nH]1)C(C)C [Example 30] | 74 | 3200
COC(=O)N[C@H](C(=O)N1CCC[C@H]1c1ncc(-c2ccc(-c3ccc(-c4cnc([C@@H]5CCCN5C(=O)[C@@H](NC(=O)OC)C(C)C)[nH]4)c4c3C3(CCOC3)CC4)cc2)[nH]1)C(C)C (stereo partly drawn) [Example 52] | 33 | 3670
COC(=O)N[C@H](C(=O)N1CCC[C@H]1c1ncc(-c2ccc(-c3sc(-c4cnc([C@@H]5CCCN5C(=O)[C@@H](NC(=O)OC)C(C)C)[nH]4)c4c3C3(CCCC3)CC4)cc2)[nH]1)C(C)C [Example 47] | 687 | 3570
COC(=O)N[C@H](C(=O)N1C2CC2C[C@H]1c1ncc(-c2ccc(-c3ccc(-c4ccc5nc([C@@H]6CC7CC7N6C(=O)[C@@H](NC(=O)OC)C(C)C)[nH]c5c4)c4c3C3(CCCC3)CC4)cc2)[nH]1)C(C)C (stereo partly drawn) [Example 32] | 77 | 64
COC(=O)N[C@@H](C)C(=O)N1CCC[C@H]1c1ncc(-c2ccc(-c3ccc(-c4cnc([C@@H]5CCCN5C(=O)[C@H](C)NC(=O)OC)[nH]4)c4c3C3(CCCC3)CC4)cc2)[nH]1 [Example 12] | 18 | 856
COC(=O)N[C@@H](C)C(=O)N1CCCC[C@H]1c1ncc(-c2ccc(-c3ccc(-c4cnc([C@@H]5CCCCN5C(=O)[C@H](C)NC(=O)OC)[nH]4)c4c3C3(CCCC3)CC4)cc2)[nH]1 [Example 27] | 655 | 12700
COC(=O)N[C@H](C(=O)N1C2CCC(C2)[C@H]1c1ncc(-c2ccc(-c3ccc(-c4ccc5nc([C@@H]6C7CCC(C7)N6C(=O)[C@@H](NC(=O)OC)C(C)C)[nH]c5c4)c4c3C3(CCCC3)CC4)cc2)[nH]1)C(C)C (stereo partly drawn) [Example 33] | 39 | 90
COC(=O)NC(C(=O)N1CCCC1c1ncc(-c2ccc(-c3ccc(-c4ccc5[nH]c(C6CCCN6C(=O)C(NC(=O)OC)C(C)C)nc5c4)c4c3C3(CCCC3)CC4)cc2)[nH]1)C(C)C (stereo not drawn) [Example 55] | 28 | 73
COC(=O)N[C@H](C(=O)N1CCC[C@H]1c1ncc(-c2ccc(-c3ccc(-c4ccc5nc([C@@H]6CCCN6C(=O)[C@@H](NC(=O)OC)C(C)C)[nH]c5c4)c4c3CCC43CCCC3)c3cnoc23)[nH]1)C(C)C [Example 46] | 118 | 388
CCC(C)[C@H](NC(=O)OC)C(=O)N1C2CC2C[C@H]1c1ncc(-c2ccc(-c3ccc(-c4ccc(-c5cnc([C@@H]6CC7CC7N6C(=O)[C@@H](NC(=O)OC)C(C)CC)[nH]5)cc4)c4c3CCC43CCCC3)cc2)[nH]1 (stereo partly drawn) [Example 24] | 55 | 2690
COC(=O)N[C@H](C(=O)N1CCC[C@H]1C1=Nc2ccc(-c3cnc(-c4ccc(-c5cnc([C@@H]6CCCN6C(=O)[C@@H](NC(=O)OC)C(C)C)[nH]5)cc4)c4c3CCC43CCCC3)cc2S(=O)(=O)N1)C(C)C [Example 39] | 20 | 27
COC(=O)N[C@H](C(=O)N1C[C@@H](C)C[C@H]1c1nc(-c2ccc(-c3ccc(-c4ccc(-c5c[nH]c([C@@H]6C[C@H](C)CN6C(=O)[C@@H](NC(=O)OC)C(C)C)n5)cc4)c4c3CCC43CCCC3)cc2)c[nH]1)C(C)C [Example 21] | 980 | 4880
COC(=O)NC(C(=O)N1CCCC1c1ncc(-c2ccc(-c3ccc(-c4ccc5[nH]c(C6CCCN6C(=O)C(NC(=O)OC)C(C)C)nc5c4)c4c3CCC43CCCC3)cc2)[nH]1)C(C)C (stereo not drawn) [Example 56] | 36 | 138
COC(=O)N[C@H](C(=O)N1C2CCC(C2)[C@H]1c1ncc(-c2ccc(-c3ccc(-c4cnc([C@@H]5C6CCC(C6)N5C(=O)[C@@H](NC(=O)OC)C(C)C)[nH]4)c4c3C3(CCCC3)CC4)cc2)[nH]1)C(C)C (stereo partly drawn) [Example 25] | 32 | 10700
C=C([C@@H](NC(=O)OC)C(C)C)N1CC(C)(C)C[C@H]1c1ncc(-c2ccc(-c3ccc(-c4cnc([C@@H]5CC(C)(C)CN5C(=O)[C@@H](NC(=O)OC)C(C)C)[nH]4)cc3)c3c2CCC32CCCC2)[nH]1 [Example 18] | 203 | 458
